Experimental data taken from ChEMBL document CHEMBL1201862, “PubChem BioAssay data set” (2004).
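Tested at 5 concentrations; 48 h exposure; 96-well plates; endpoints linearly interpolated, else capped at highest concentration. At the GI50, growth is halved.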 The source made the active and inactive calls. No stated cut-off is given here; in the data, active = GI50 up to about 1.1 µM and inactive = higher.

How the values were obtained:
Experiment in all cases: DTP human tumour cell line panel, 48 h
DU-145 = system: DU-145
SK-MEL-28 = system: SK-MEL-28
SF-268 = system: SF-268
A549 = system: A549
EKVX = system: EKVX
SK-OV-3 = system: SK-OV-3
OVCAR-4 = system: OVCAR-4
MDA-N = system: MDA-N
HCC 2998 = system: HCC 2998
CCRF-CEM = system: CCRF-CEM
SF-539 = system: SF-539
IGROV-1 = system: IGROV-1
HL-60 = system: HL-60
SW-620 = system: SW-620
U-251 = system: U-251
SN12C = system: SN12C
UO-31 = system: UO-31
LOX IMVI = system: LOX IMVI
RPMI-8226 = system: RPMI-8226

Measured: GI50

O=S(=O)(c1ccccc1)c1ccc(/N=N/O)nc1
inactive: DU-145 > 100 µM | SK-MEL-28 > 100 µM | SF-268 > 100 µM | A549 > 100 µM | EKVX > 100 µM | SK-OV-3 > 100 µM | OVCAR-4 > 100 µM | MDA-N > 100 µM | HCC 2998 > 100 µM | CCRF-CEM 59.4 µM | SF-539 > 100 µM | IGROV-1 > 100 µM | HL-60 > 10 µM | SW-620 > 100 µM | U-251 > 100 µM | SN12C > 100 µM | UO-31 > 100 µM

CC(C)(C)O/C=C1/C(=O)OC2C[C@@H](O[Si](C)(C)C(C)(C)C)CC12 (stereo not given in full)
inactive: DU-145 29.4 µM | SK-MEL-28 > 100 µM | SF-268 80.9 µM | A549 58.9 µM | LOX IMVI 36.6 µM | EKVX > 100 µM | SK-OV-3 > 100 µM | OVCAR-4 74 µM | MDA-N > 100 µM | HCC 2998 > 100 µM | CCRF-CEM 42.7 µM | IGROV-1 72.6 µM | SW-620 54.3 µM | U-251 48 µM | SN12C 34.7 µM | UO-31 52.2 µM

O=C(O)COc1cccc2ccccc(=O)c12
inactive: DU-145 > 100 µM | SK-MEL-28 > 100 µM | SF-268 > 100 µM | A549 > 100 µM | LOX IMVI > 100 µM | EKVX > 100 µM | SK-OV-3 > 100 µM | OVCAR-4 > 100 µM | MDA-N > 100 µM | HCC 2998 > 100 µM | CCRF-CEM > 100 µM | SF-539 > 100 µM | IGROV-1 > 100 µM | HL-60 > 100 µM | SW-620 > 100 µM | U-251 > 100 µM | SN12C > 100 µM | UO-31 > 100 µM

O=C(C1OC1c1ccc(F)cc1)C12CC3CC(CC(C3)C1)C2 (stereo not given)
inactive: DU-145 34 µM | SK-MEL-28 24.4 µM | SF-268 22.4 µM | A549 21 µM | LOX IMVI 2.85 µM | EKVX 19.3 µM | SK-OV-3 31.1 µM | OVCAR-4 13.8 µM | MDA-N 12.7 µM | HCC 2998 20.1 µM | CCRF-CEM 6.95 µM | SF-539 21.2 µM | IGROV-1 19 µM | HL-60 4.04 µM | SW-620 17.2 µM | U-251 11.4 µM | SN12C 16.4 µM | UO-31 20.9 µM

CC(=O)Oc1c2c(c3n(c1=O)CCCC3)C(=O)N(c1ccccc1)C2=O
inactive: DU-145 > 100 µM | SK-MEL-28 > 100 µM | SF-268 > 100 µM | A549 > 100 µM | LOX IMVI > 100 µM | EKVX 94 µM | SK-OV-3 > 100 µM | OVCAR-4 54.3 µM | MDA-N 52.8 µM | HCC 2998 30.8 µM | CCRF-CEM > 100 µM | SF-539 > 100 µM | IGROV-1 78.5 µM | HL-60 > 100 µM | SW-620 > 100 µM | U-251 > 100 µM | SN12C 83.2 µM | UO-31 95.7 µM

CCOP(=O)(OCC)/C(C#N)=C/c1cccn1CC(C)C
inactive: DU-145 > 100 µM | SK-MEL-28 > 100 µM | SF-268 > 100 µM | A549 > 100 µM | LOX IMVI > 100 µM | EKVX > 100 µM | SK-OV-3 > 100 µM | MDA-N > 100 µM | HCC 2998 > 100 µM | SF-539 > 100 µM | IGROV-1 > 100 µM | SW-620 > 100 µM | U-251 > 100 µM | SN12C > 100 µM | UO-31 61.4 µM

CCC(CCCN)Nc1cc(OC)cc2c(C)ccnc12 (stereo not given)
inactive: DU-145 17.5 µM | SK-MEL-28 16.9 µM | SF-268 15.3 µM | A549 15.6 µM | LOX IMVI 16.3 µM | EKVX 18.4 µM | SK-OV-3 13.6 µM | OVCAR-4 17.8 µM | MDA-N 17.5 µM | HCC 2998 18.8 µM | CCRF-CEM 18.4 µM | SF-539 18.4 µM | IGROV-1 16.8 µM | HL-60 12.4 µM | SW-620 20.8 µM | SN12C 21.2 µM | UO-31 12.9 µM

O=CC(O)C(O)C(O)C(O)C(=O)NCCCCCCCCCCCCNC(=O)C(O)C(O)C(O)C(O)C=O (stereo not given)
inactive: DU-145 > 100 µM | SK-MEL-28 > 100 µM | SF-268 > 100 µM | A549 > 100 µM | LOX IMVI > 100 µM | EKVX > 100 µM | SK-OV-3 > 100 µM | OVCAR-4 > 100 µM | MDA-N > 100 µM | HCC 2998 > 100 µM | CCRF-CEM > 100 µM | SF-539 > 100 µM | IGROV-1 > 100 µM | HL-60 > 100 µM | SW-620 > 100 µM | U-251 > 100 µM | UO-31 > 100 µM

C[n+]1c(-c2ccc(/C=N\N3CCN(/N=C/c4ccc(-c5cn6ccsc6[n+]5C)cc4)CC3)cc2)cn2ccsc21
inactive: DU-145 23.3 µM | SF-268 34.4 µM | RPMI-8226 22.7 µM | A549 44.1 µM | LOX IMVI 60.8 µM | EKVX 43.5 µM | SK-OV-3 8.04 µM | OVCAR-4 28.4 µM | MDA-N 25.7 µM | CCRF-CEM 36.7 µM | SF-539 30.3 µM | IGROV-1 30.7 µM | HL-60 21.2 µM | SW-620 32.1 µM | U-251 30.3 µM | SN12C 35.2 µM | UO-31 89.5 µM

CCC/N=C/c1cc(Cc2ccc(O)c(/C=N/CCC)c2)ccc1O
inactive: DU-145 4.61 µM | SF-268 3.8 µM | A549 17 µM | LOX IMVI 3.17 µM | EKVX 8.87 µM | SK-OV-3 18.5 µM | OVCAR-4 5.47 µM | MDA-N 2.78 µM | HCC 2998 14.1 µM | SF-539 2.77 µM | IGROV-1 4.09 µM | HL-60 2.21 µM | SW-620 3.55 µM | U-251 2.64 µM | SN12C 3.82 µM | UO-31 17.1 µM

Fc1cccc(Cl)c1/C=N\N=C1c2ccccc2-c2ccccc21
inactive: DU-145 > 100 µM | SK-MEL-28 76 µM | SF-268 > 100 µM | RPMI-8226 33.9 µM | A549 70 µM | LOX IMVI > 100 µM | EKVX > 100 µM | SK-OV-3 > 100 µM | OVCAR-4 49.4 µM | MDA-N 48.3 µM | CCRF-CEM > 100 µM | SF-539 49.4 µM | IGROV-1 64.3 µM | HL-60 > 100 µM | SW-620 73.8 µM | U-251 78.9 µM | SN12C > 100 µM | UO-31 > 100 µM

O=C(OC[C@H]1C[C@H]2C(=O)CCC[C@H]2O1)c1ccccc1
inactive: DU-145 > 100 µM | SK-MEL-28 > 100 µM | SF-268 > 100 µM | RPMI-8226 > 100 µM | A549 > 100 µM | LOX IMVI > 100 µM | EKVX > 100 µM | SK-OV-3 > 100 µM | OVCAR-4 > 100 µM | MDA-N > 100 µM | CCRF-CEM > 100 µM | SF-539 > 100 µM | IGROV-1 > 100 µM | HL-60 > 100 µM | SW-620 > 100 µM | U-251 > 100 µM | SN12C > 100 µM | UO-31 > 100 µM
